Several values for one entry are separate records, joined by “and”; a condition that tells them apart may be missing. Equal entries are not always repeated. One block for each molecule: values may come before it.
What was measured:
[1] = system: CEA-positive (LS174T) tumor; test: Three-step PRIT (bsAb, dextran-DOTA-Y clearing agent, radiolabeled DOTA) biodistribution in xenograft mice; format: in vivo; settings: for tumor uptake/activity, antigen-positive LS174T tumor: PRIT protocol with bsAb and dextran-DOTA-Y
Experimental: (§1) Radiolabeling. DOTA compounds were dissolved at 0.5 mM in ammonium acetate pH 5.6. 1-2 mCi ^177LuCl3 (PerkinElmer, Waltham, Mass.) or ^111InCl3 (Cardinal Health, Dublin, Ohio) were added to the metal chelate and incubated for 1-2 h at 85-95 C. The radiolabeled compounds were purified by RP-HPLC (Humblet et al., Contrast Media Mol. Imaging. 1:196-211, 2006; Misra et al., J. Nucl. Med. 48:1379-1389, 2007) with gamma detection on a 4.6×75 mm Symmetry C18 column using a linear gradient from 0% to 40% B over 15 minutes, at a flow rate of 1 mL/min, where A=10 mM TEAA and B=methanol. The purified compounds were dried under vacuum, resuspended in saline, and filter-sterilized.
(§2) Animal models. All animal handling was performed in accordance with BIDMC IACUC guidelines. Male NCRU-nu/nu mice were purchased from Taconic Farms (Germantown, N.Y.). For biodistribution and tumor uptake, 100-150 μCi ^177Lu- or ^111In-labeled hapten was injected intravenously into the mice. Blood was collected from the tail vein using micro-capillary tubes and counted on a model 1470 Wallac Wizard™ (Perkin Elmer, Wellesley, Mass.) 10-detector gamma counter. Mice were euthanized by intraperitoneal injection of pentobarbital followed by cervical dislocation, a method consistent with the recommendations of the Panel on Euthanasia of the American Veterinary Medical Association. Organs and tumors were resected, washed in PCS three times, weighed, and counted as described above.
We next tested a protocol involving all three reagents to determine the efficacy of our engineered PRIT system. […] After an additional 1 h, 100-150 μCi ^177Lu-DOTA was injected intravenously. At 4 h post-injection of radiolabeled DOTA, tumor uptake was 7.44+/−0.41% ID/g in the antigen-positive tumor, 84-fold higher than the tumor uptake observed for ^177Lu-DOTA alone. Activity was also higher in non-tumor tissue due to binding of ^177Lu-DOTA to residual bsAb in the extravascular compartment. Tumor uptake in the antigen-negative tumor was 9.82+/−0.35% ID/g at 4 h, similar to the antigen-positive tumor due to nonspecific uptake from enhanced permeability and retention (EPR) of the bsAb. […] The LS174T tumor to blood ratio increased from 18+/−2 at 4 h to 380+/−90 at 24 h and was greater than 450 at 48 h. […] The LS174T tumor to kidney ratio increased from approximately 8 at 4 h to about 20 at 24 and 48 h. SPECT/CT images confirmed the quantitative biodistribution data with high PSECT signal in the CEA-positive tumors, lower signal in the CEA-negative tumor and no observable signal in non-tumor tissue.
The pretargeted protocol described above was used to analyze the effect of affinity on the tumor uptake of radiolabeled DOTA. […] The 24 h organ/tissue biodistribution was determined in tumor-bearing mice with each of the four radiolabeled DOTA compounds. […] The activity in the C6 antigen-negative tumor increased with affinity, presumably due to nonspecific uptake of bsAb. The activity in the non-tumor tissues is also higher for the higher affinity compounds due to the higher affinity binding to residual bsAb.

[2] = Organ uptake of DOTA-based compounds in normal CD1 mice; format: in vivo; settings: 4 h p.i., compared to radiolabeled DOTA-biotin and DOTA-Bn
CEA-negative (C6) tumor = test: Three-step PRIT (bsAb, dextran-DOTA-Y clearing agent, radiolabeled DOTA) biodistribution in xenograft mice; format: in vivo; settings: PRIT protocol
Experimental: as §1, §2
We next tested a protocol involving all three reagents to determine the efficacy of our engineered PRIT system. […] After an additional 1 h, 100-150 μCi ^177Lu-DOTA was injected intravenously. At 4 h post-injection of radiolabeled DOTA, tumor uptake was 7.44+/−0.41% ID/g in the antigen-positive tumor, 84-fold higher than the tumor uptake observed for ^177Lu-DOTA alone. […] SPECT/CT images confirmed the quantitative biodistribution data with high PSECT signal in the CEA-positive tumors, lower signal in the CEA-negative tumor and no observable signal in non-tumor tissue.

[3] = MIRD dosimetry estimate from PRIT mouse biodistribution; format: in vivo; settings: 70 kg man
Experimental: Dosimetry. Radiation doses absorbed by normal tissues other than the red marrow were calculated according to the MIRD scheme. Percent injected activity in tumor, kidneys, liver, blood, and whole-body were calculated from activity measurements. The activity at time 0 was assumed to be 4% ID/g in the kidney and liver, 50% ID/g in the blood, 0% ID/g in the tumor and 100% in the whole-body. Isotope decay-adjusted activity was integrated over time, with a conservative assumption that the 48 h organ % ID remained constant thereafter. S values for ^90Y and ^177Lu were used to calculate dosimetry estimates in an adult male reference (Stabin and Siegel, Health Phys. 85:294-310, 2003). The red marrow dose was calculated as described (Wessels et al., J. Nucl. Med. 45:1725-1733, 2004) from blood activity measurements. […] Tumor doses were calculated from self-dose only using S-factors for a unit density sphere of size 500 g (the average LS174T tumor size scaled by 2000).
From the PRIT organ biodistribution data, the radiation dose to the kidney, liver, red marrow, and antigen-positive tumor was estimated for a 70 kg person for ^90Y and ^177Lu. […] The estimated doses to the kidney, liver, and red marrow were calculated from both the self-dose and cross-dose, wherein the whole-body activity was used to determine the cross-dose. The estimated dose to the tumor was determined from self-dose only. […]

DOTA-Bn-biotin-Y [4] = test: Dissociation kinetics, yeast surface-displayed scFv; format: binding
Experimental: Dissociation Kinetics. To determine the dissociation rate, koff, for DOTA-Bn-biotin complexes, cells were induced and washed as above, and 1×10^7 cells were incubated in 1 mL PBSA with 1 nM DOTA-Bn-biotin-metal for 1 h to reach saturation. Subsequently, the yeast were washed with 1 mL PBSA, resuspended in 1 mL PBSA with 1 μM (excess) non-biotinylated antigen as competitor and split into 100 μL aliquots. These aliquots were incubated at 37° C. for different lengths of time, then washed with cold PBSA and left on ice. All samples were simultaneously stained with streptavidin-phycoerythrein for 10-20 min and analyzed by flow cytometry. The data was fit to the following equation by least squares regression, varying MFUmin, MFUrange and koff: MFUtot=MFUmin+MFUrangee^−k^off^t For nonbiotinylated antigens, the procedure was identical except that initial saturation was with the nonbiotinylated antigen and DOTA-Bn-biotin-metal was used as competitor. The data followed the expression MFUtot=MFUmin+MFUrange(1−e^−k^off^t)

DOTA-Bn-Gd = test: KD by competition with DOTA-Bn-biotin-Y, yeast surface-displayed scFv; format: binding; settings: hapten DOTA-Bn, metal Gd; mean ± SD
Experimental: (§3) KD Measurements for DOTA-metal and DOTA-Bn-metal. To determine the KD for scFv binding to nonbiotinylated haptens, the above protocol was modified to a competition-based assay as follows. […] Incubation, staining, and flow cytometry analysis was the same as that for biotinylated antigen. MFUtot as a function of the concentration of the nonbiotinylated antigen ([Ag]), a normalization constant (MFUrange), the minimal total mean fluorescence (MFUmin), the KD for DOTA-Bn-biotin-Y (KD, biot), DOTA-Bn-biotin-Y concentration ([Agbiot]), and the KD for the antigen of interest (KD) follows this modified equation:
(§4) [formula] The data was fit by least squares regression as before, varying MFUmin, MFUrange and KD.

DOTA-Bn-Ga = test: as above; format: binding; settings: hapten DOTA-Bn, metal Ga; mean ± SD
Experimental: as §3, §4

DOTA-Gd = test: as above; format: binding; settings: hapten DOTA, metal Gd; mean ± SD
Experimental: as §3, §4

DOTA-Bn-In = test: as above; format: binding; settings: hapten DOTA-Bn, metal In; mean ± SD
Experimental: as §3, §4

DOTA-Y = test: as above; format: binding; settings: hapten DOTA, metal Y; mean ± SD
Experimental: as §3, §4

DOTA-Bn-Lu = test: as above; format: binding; settings: hapten DOTA-Bn, metal Lu; mean ± SD
Experimental: as §3, §4

DOTA-Ga = test: as above; format: binding; settings: hapten DOTA, metal Ga; mean ± SD
Experimental: as §3, §4

DOTA-In = test: as above; format: binding; settings: hapten DOTA, metal In; mean ± SD
Experimental: as §3, §4

DOTA-Bn-Y = test: as above; format: binding; settings: hapten DOTA-Bn, metal Y; mean ± SD
Experimental: as §3, §4

DOTA-Lu = test: as above; format: binding; settings: hapten DOTA, metal Lu; mean ± SD
Experimental: as §3, §4

DOTA-Bn-biotin-Y [5] = test: KD by titration of yeast surface-displayed scFv, flow cytometry; format: binding; settings: hapten DOTA-Bn-Biotin, metal Y, 37° C., mean ± SD
Experimental: Briefly, yeast expressing an scFv clone on their surface were grown, washed with PBSA and incubated with various concentrations of DOTA-Bn-biotin-metal long enough to allow for at least a 95% approach to equilibrium. Generally, 5×10^5 induced cells were used for each concentration point. When antigen concentrations less than 10 pM were assayed, the titration was performed with 2.5×10^4 induced and 7.5×10^5 non-induced cells to ensure antigen excess over the scFv without requiring impractically large volumes. The addition of non-induced cells aids pelleting during centrifugation (Hackel et al., J. Mol. Biol. 381:1238-1252, 2008). When antigen concentrations greater than 100 nM were used, non-specific antigen binding to the yeast surface was taken into account. Yeast expressing an irrelevant scFv on their surface were treated in the same manner as the yeast displaying the scFv of interest, and mean total phycoeryhthrein fluorescence (MFUtot) due to non-specific binding was measured by flow cytometry and averaged over three replicates. This value was subtracted from the MFUtot for the yeast of interest, and the data was fit by least-squares regression.

Molecule: O=C([O-])CN1CCN(CC(=O)[O-])CCN(CC(=O)[O-])CCN(CC(=O)[O-])CC1.[111In+3] [^111In-DOTA]
LS174T tumor to kidney ratio ([1]; 24 h, PRIT protocol): 1.2+/−0.4
tumor uptake/activity, antigen-positive LS174T tumor ([1]; 24 h): 0.5+/−0.1 % ID/g

liver and intestine uptake [2]: slightly lower
dose-limiting organ ([3]; predicted from radiation dose estimates): red marrow
blood activity ([1]; 48 h, PRIT protocol): not measurable above background
Molecule: O=C([O-])CN1CCN(CC(=O)[O-])CCN(CC(=O)[O-])CCN(CC(=O)[O-])CC1.[177Lu+3].[H+] [^177Lu-DOTA]
tumor uptake, antigen-negative tumor (CEA-negative (C6) tumor; 4 h): 9.82+/−0.35 % ID/g
tumor activity, antigen-negative tumor (CEA-negative (C6) tumor; 24 h): 4.23+/−0.54 % ID/g
tumor activity, antigen-negative tumor (CEA-negative (C6) tumor; 48 h): 2.89+/−2.28 % ID/g
estimated dose to the tumor ([3]; at a red marrow dose of 1.5 Gy, estimated from mouse biodistribution, self-dose only): 156 Gy
LS174T tumor to blood ratio ([1]; 4 h, PRIT protocol): 18+/−2
LS174T tumor to kidney ratio ([1]; 4 h, PRIT protocol): approximately 8
tumor uptake relative to hapten alone ([1]; 4 h, antigen-positive tumor, versus ^177Lu-DOTA alone): 84 fold
tumor uptake, antigen-positive tumor ([1]; 4 h post-injection of radiolabeled DOTA, 500 μg bsAb, 250 μg dextran-DOTA-Y 24 h later, hapten 1 h later): 7.44+/−0.41 % ID/g
tumor uptake/activity, antigen-positive LS174T tumor ([1]; 24 h): ~14 % ID/g and 14.3+/−1.8 % ID/g
tumor uptake relative to hapten of ~1 nM affinity ([1]; 24 hours, affinity ~100 pM versus ~1 nM): 8 fold
tumor uptake relative to hapten of ~10 nM affinity ([1]; 24 hours, affinity ~100 pM versus ~10 nM): 28 fold

Kd (DOTA-Bn-Gd): 0.034 ± 0.0053 nM
Kd (DOTA-Bn-Ga): 52 ± 12 nM
Kd (DOTA-Gd): 0.149 ± 0.006 nM
Kd (DOTA-Bn-In): 1.01 ± 0.04 nM
Kd (DOTA-Y): 0.103 ± 0.035 nM
Kd (DOTA-Bn-Lu): 0.0108 ± 0.0025 nM
Kd (DOTA-Ga): 216 ± 26 nM
Kd (DOTA-In): 23.7 ± 3.7 nM
Kd (DOTA-Bn-Y): 0.0154 ± 0.002 nM
Kd (DOTA-Lu): 0.39 ± 0.014 nM
Kd (DOTA-Bn-biotin-Y [5]): 0.0082 ± 0.0019 nM
B1: C8.2.5: high-affinity disulfide-stabilized DOTA-binding scFv affinity matured from 2D12.5; residues 1-244 are SEQ ID NO:12 (protein)
scFv: HVKLQESGPGLVQPSQSLSLTCTVSGFSLTDYGVHWVRQSPGKGLEWLGVIWSGGGTAYNTALISRLNIYRDNSKNQVFLEMNSLQAEDTAMYYCARRGSYPYNYFDAWGCGTTVTVSSGGGGSGGGGSGGGGSQAVVIQESALTTPPGETVTLTCGSSTGAVTASNYANWVQEKPDHCFTGLIGGHNNRPPGVPARFSGSLIGDKAALTIAGTQTEDEAIYFCALWYSDHWVIGGGTRLTVLGGSEQKLISEEDL
dissociation half-time (DOTA-Bn-biotin-Y [4]): over 5 hours

Kd (DOTA-Bn-biotin-Y [5]): 3.7 ± 3.6 nM
B2: 2D12.5ds: original 2D12.5 scFv with the addition of the intramolecular disulfide bond and removed glycosylation site (SEQ ID NO:2) (protein)
scFv: QVKLQESGPGLVQPSQSLSITCTVSGFSLTDYGVHWVRQSPGKGLEWLGVIWSGGGTAYTAAFISRLNIYKDNSKNQVFFEMNSLQAEDTAMYYCARRGSYPYNYFDVWGCGTTVTVSSGGGGSGGGGSGGGGSQAVVTQESALTTSPGETVTLTCRSSTGAVTTSNYANWVQEKPDHCFTGLIGGNNNRPPGVPARFSGSLIGDKAALTIAGTQTEDEAIYFCALWYSNHWVFGGGTRLTVLG
dissociation half-time (DOTA-Bn-biotin-Y [4]): 5.5 min

Reference: US8648176B2, “Engineered proteins with high affinity for DOTA chelates” (Massachusetts Institute of Technology, priority 2009, dated 2014)
